Measured values from article PMC12097015, “Development of MDM2‐Targeting PROTAC for Advancing Bone Regeneration” (Advanced Science, 2025).

Assays:
[1] = target: MDM2 (Homo sapiens, UniProt Q00987); assay: Immunoprecipitation of MDM2 ubiquitination in HeLa cells overexpressing MDM2 and HA-tagged ubiquitin; type: cell-based; design: host or cells: HeLa; details: 10 µM, within 60 min
Description: HeLa cells were cultured in DMEM (Welgene, LM001‐05) supplemented with 10% FBS (Welgene, S001‐07). For transient transfection, the cells were seeded at ≈70% confluence. The following day, transfection was performed using Lipofectamine 3000 (Invitrogen, L3000015) for 24 h according to the manufacturer's protocol. The cells were transfected with 100 ng of EGFP‐MDM2 per well in the 96‐well plate and were transfected with 2 µg of MDM2 WT and 2 µg of HA‐ubiquitin, total 4 µg per well in the 6‐well plate.
Hela cells (passage. 5) 7 × 10^5 cells well^−1 were seeded in a 6‐well plate and allowed to adhere overnight (o/n). The next day, WT MDM2 and HA‐ubiquitin plasmid transfection was performed using Lipofectamine 3000 for 24 h, according to the manufacturer's instructions. After transfection for 24 h, cells were treated with CL144 for different time intervals, including 15, 30, and 60 min. After drug treatment, the cells were lysed using immunoprecipitation (IP) lysis buffer (ThermoFisher, 87788) supplemented with a protease inhibitor cocktail (PIC). The cell lysates were harvested for subsequent experiments. The cell lysate was incubated with a HA‐tag primary antibody (1′Ab) at 4 °C overnight to capture the target protein complexes. The next day, the antibody–protein complexes were bound to the beads for 1 h. The beads were washed three times with IP lysis buffer to remove nonspecific binding. […]

[2] = system: rabbit calvaria; assay: Rabbit calvarial vertical onlay graft model; type: in vivo, New Zealand white rabbits; details: eight weeks, CL144 10 μΜ or rhBMP‐2 3.85 μΜ soaked on BCP carrier
Description: Total six male, New Zealand white rabbits, weighing ≈2.8–3.2 kg were used for the rabbit calvaria onlay graft model. Rabbits were kept in separate cages under standard laboratory conditions with free access to food and water and provided standard meals according to the ARRIVE guidelines. The animals were sacrificed eight weeks postoperatively (n = 6), and each rabbit was divided into three different groups. […] General anesthesia was induced by injecting 65 mg kg^−1 ketamine (Ketalar, Yuhan, Korea) and xylazine (Rompun, Bayer, Korea). A full‐thickness flap was raised under local anesthesia with 2% lidocaine and 1:100 000 epinephrine to expose the calvarial bone. Slits around the sagittal suture were prepared using a trephine bur (7 mm in diameter, 1 mm in depth), and then four perforations of the external cortical bone plate were made. […]
‐Radiographic analysis: A single‐blinded examiner conducted all the measurements. […] The volume of the newly formed bone within the cylinders was measured.
The embedding paraffin blocks were then sectioned into 4 µm thick slices and stained with Masson trichrome. […] Within the cylinder, the total augmented area, area and proportion of newly formed bone, and residual graft materials were measured as previously described.^[ [34] ^]

[3] = system: osteocalcin (OCN); assay: Immunostaining of osteogenic markers in hBMSCs; type: cell-based, human; details: 10 µM
[4] = system: hBMSCs; assay: Calcium deposit staining (X-Rhod-1) in hBMSCs; type: cell-based, human; details: X‐Rhod‐1, p < 0.05
Description: hBMSCs were differentiated in the presence of the 10 mM β‐glycerophosphate (Sigma‐Aldrich, G9422) and 50 µM ascorbic acid (Sigma‐Aldrich, A4403) in culture medium for 10 d. Subsequently, the cells were fixed with 4% PFA for 30 min, followed by two washes with Mg^2+‐and Ca^2+‐free dPBS (Welgene, LB‐204). To stain for calcium, X‐Rhod‐1 (Invitrogen, X14210) dye was diluted in Mg^2+‐and Ca^2+‐free dPBS at a concentration of 1 µM and incubated at room temperature in the dark for 1 h. The cells were then washed five times with Mg^2+‐and Ca^2+‐free dPBS at 10 min intervals. The samples were observed under a Cytation5 microscope (Agilent Technologies) at a wavelength of 595 nm.

[5] = system: hBMSCs; assay: Alizarin Red S (ARS) staining of hBMSCs under osteogenic differentiation; type: cell-based, human; details: osteogenic differentiation conditions
Description: To induce osteogenic differentiation, the cells were seeded in confluent plates and cultured in osteogenic induction medium the following day. The differentiation medium was prepared by adding 10 mM β‐glycerophosphate (Sigma‐Aldrich, G9422), 50 µM ascorbic acid (Sigma‐Aldrich, A4403), and 0.1 µM dexamethasone (Sigma‐Aldrich, D4902) to the culture medium. The cells were treated with MDM2 inhibitors, Nutlin‐3 (Sigma‐Aldrich, N6787) or CL144 in an osteoinductive medium and incubated for 10–14 days to induce osteogenic differentiation. The differentiation medium was changed every 2–3 days (The list of MDM2 inhibitors used is shown in Figure 1A and presented in Table S1, Supporting Information).
Following osteogenic differentiation for the indicated number of days, the cells were fixed in 70% ethanol for 3 min at room temperature or in 4% PFA (Tech & Innovation, BPP‐9004) for 30 min at room temperature, washed with distilled water, and stained with 2% Alizarin Red S (Sigma‐Aldrich; pH 4.2, A5533) for 30 min.

[6] = system: RUNX2, OCN, OPN; assay: qPCR of osteogenic differentiation marker genes in hBMSCs; type: cell-based, human
Description: Total RNA was extracted from hBMSCs treated with Nutlin‐3 or CL144, as well as from control cells, using Trizol (Invitrogen, 15596026), according to the manufacturer's instructions. cDNA was synthesized using TOPscript RT DryMIX (Enzynomics, RT200). Human gene‐specific primer sequences were used. (Used primer sequences see Table S2, Supporting Information). qPCR was conducted using the SYBR Green qPCR Master Mix (Applied biosystems, 4 309 155). Relative gene expression levels were calculated using the ΔΔCt method with GAPDH as the internal control for normalization.

[7] = system: hBMSCs; assay: Bulk RNA-seq of cultured hBMSCs; type: cell-based, human; details: CL144 versus Nutlin‐3
Excerpt: ‐Sample Preparation: In accordance with the manufacturer's instructions, total RNA was extracted using Trizol from hBMSCs treated with Nutlin‐3 or CL144 as well as from control cells. Utilizing an Agilent Bioanalyzer RNA ScreenTape kit (Agilent, 5067–5576), the integrity of the RNA (RIN) was verified. All samples with RIN value > 8.0 were used for sequencing.
‐Library Construction: RNA‐seq libraries were constructed according to the manufacturer's instructions for the SRSLY Library Prep kit, which were provided by Claretbio (CBS‐K155B‐24). […] This work fragmented and enriched the mRNA using oligo (dT). After ligating the cDNA fragments to adapters, PCR amplification was performed.
‐Sequencing: The libraries were performed to sequencing on the Nextseq2000 (Illumina) platform, utilizing the SRSLY RNA NanoPlus kit to generate 100 bp paired‐end reads.
‐Data Analysis: FastQC was used to trim the adaptor sequences and remove low‐quality reads from the raw sequencing data (FASTQ files). After that, Hisat2 v2.2.1 was used to align these clean reads with the Human Genome Reference GRCh38. DESeq2 was used for differential expression analysis, while g: Profiler was used for GO enrichment analysis.

Sequence of MDM2 (Q00987 whole entry): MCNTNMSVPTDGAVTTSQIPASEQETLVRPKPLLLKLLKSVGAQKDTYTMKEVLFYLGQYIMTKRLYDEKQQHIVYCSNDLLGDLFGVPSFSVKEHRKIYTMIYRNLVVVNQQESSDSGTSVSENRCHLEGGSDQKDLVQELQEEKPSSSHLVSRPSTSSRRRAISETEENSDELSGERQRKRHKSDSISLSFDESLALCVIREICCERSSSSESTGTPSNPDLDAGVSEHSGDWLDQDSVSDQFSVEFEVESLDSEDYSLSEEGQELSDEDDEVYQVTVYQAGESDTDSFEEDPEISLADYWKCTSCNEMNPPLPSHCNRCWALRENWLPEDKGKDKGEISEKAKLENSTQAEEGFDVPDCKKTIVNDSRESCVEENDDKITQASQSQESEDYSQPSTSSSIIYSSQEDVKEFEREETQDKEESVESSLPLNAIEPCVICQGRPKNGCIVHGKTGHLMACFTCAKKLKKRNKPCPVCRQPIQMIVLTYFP

With `COc1ccc(C2=N[C@H](c3ccc(Cl)cc3)[C@H](c3ccc(Cl)cc3)N2C(=O)N2CCN(CC(=O)NCCCCCCCCOc3cccc4c3C(=O)N(C3CCC(=O)NC3=O)C4=O)C(=O)C2)c(OC(C)C)c1` (stereo in doubt) [CL144] the “increase of ubiquitination level of MDM2” value [1] was 2.65 fold, the “amount of new bone (histomorphometric analysis)” value [2] was 25.58 ± 11.70% and the “osteocalcin (OCN) protein intensity compared to the control group” value [3] was “no statistically significant difference”. The “calcium deposits compared to the control group” value [4] was “significantly increased”, the “biomineralization / osteogenic potency (ARS staining)” value [5] was “significantly enhanced biomineralization” and the “OPN mRNA level” value ([6]; 10 μΜ) was “increased”. For the same molecule, the “expression levels of RUNX2 and OCN (mRNA) compared to Nutlin‐3” value ([6]; same concentrations) was “significantly increased”, the “COL8A2 expression (log2FC)” value [7] was 6.02 and the “COL11A1 expression (log2FC)” value [7] was 6.23.
